{
  "source": "patent US20230398178A1",
  "about": "“METHODS AND COMPOSITIONS FOR TREATING OR PREVENTING A VAGINAL INFECTION OF GARDNERELLA VAGINALIS” (Massachusetts Institute of Technology, priority 2022, published 2023)",
  "system": "vaginolysin (vly)",
  "format": "cell-based, Gardnerella vaginalis",
  "note": "“Also recorded” adds a separate entry of the source.",
  "data": [
    {"smiles": "C[C@@H](O)[C@H](O)[C@H](O)[C@@H](O)C=O", "note": "[D-fucose, 6-deoxy-D-galactose]", "values": [
      {"measurement": "effect on vly expression, in words", "result": "expressed less vaginolysin; also recorded: significantly reduce vly expression"}
    ]}
  ]
}
